Data taken from patent US20220162163A1, “ALANINE-BASED MODULATORS OF PROTEOLYSIS AND ASSOCIATED METHODS OF USE” (Arvinas Operations, Inc., priority 2015, published 2022).

Biological target: T1, Androgen receptor (AR) (Homo sapiens, UniProt P10275)
T1 construct: endogenous in cells; host or cells: VCaP
T1 sequence (P10275 1-920): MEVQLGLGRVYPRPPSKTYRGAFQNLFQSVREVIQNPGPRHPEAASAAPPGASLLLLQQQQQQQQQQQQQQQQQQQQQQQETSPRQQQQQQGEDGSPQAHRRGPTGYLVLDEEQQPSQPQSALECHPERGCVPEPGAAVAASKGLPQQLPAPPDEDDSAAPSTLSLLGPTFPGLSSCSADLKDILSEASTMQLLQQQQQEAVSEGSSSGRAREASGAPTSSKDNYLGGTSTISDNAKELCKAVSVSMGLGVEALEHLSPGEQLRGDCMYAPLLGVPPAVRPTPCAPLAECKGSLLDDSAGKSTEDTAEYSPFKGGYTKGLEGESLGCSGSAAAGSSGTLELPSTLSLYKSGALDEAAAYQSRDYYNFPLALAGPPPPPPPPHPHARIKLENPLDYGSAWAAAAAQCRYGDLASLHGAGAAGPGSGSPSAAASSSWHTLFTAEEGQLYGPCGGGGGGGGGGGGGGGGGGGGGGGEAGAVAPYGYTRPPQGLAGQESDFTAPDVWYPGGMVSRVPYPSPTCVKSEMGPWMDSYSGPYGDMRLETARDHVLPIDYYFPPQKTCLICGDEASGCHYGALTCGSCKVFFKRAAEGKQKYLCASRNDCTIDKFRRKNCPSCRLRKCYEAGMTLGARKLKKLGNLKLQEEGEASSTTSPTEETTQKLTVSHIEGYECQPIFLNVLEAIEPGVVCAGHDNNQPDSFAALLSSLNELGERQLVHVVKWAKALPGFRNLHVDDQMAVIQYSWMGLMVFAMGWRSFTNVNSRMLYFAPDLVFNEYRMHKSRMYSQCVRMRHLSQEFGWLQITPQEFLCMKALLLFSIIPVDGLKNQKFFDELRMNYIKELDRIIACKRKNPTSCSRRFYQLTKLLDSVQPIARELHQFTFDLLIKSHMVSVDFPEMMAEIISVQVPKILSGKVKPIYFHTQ
Assay: Cellular assay of androgen receptor (AR) degradation (VCaP cells, ELISA)
Format: cell-based
Conditions: 4 h; androgen receptor, VCaP cells, PROTAC concentration 1 μM, relative to DMSO control; read-out: Target protein degradation range
Procedure: Protocol of the Cellular Assay of Androgen Receptor (AR) Degradation (VCaP Cells, ELISA).
For detection Cell Signaling PathScan Sandwich Elisa Catalog #12850 Lot 11 was used. VCaP cells were cultured in ATCC DMEM+ATCC FBS and plated 40,000/well 100 μl/well in RPMI P/S with 5% CSS Omega (bovine) serum into a 96 well plate. The cells were grown for a minimum of 3 days, dosed with compounds in 0.1% DMSO (diluted with 5% CSS) and incubated with aspiration for 4 hours. 100 μl of 1× Cell Signaling lysis buffer #9803 (36 ml dH2O+4 ml Cell Signaling lysis buffer) was added. The incubation was placed on cold room shaker for 10 min at speed 8-9. 5 μl to 100 μl of Diluent was transferred to Elisa plate (0.15 ug/ml-0.075 ug/ml) and stored at 4 C overnight on cold room shaker speed 5 (gentle swirl) and then shaken next morning at 37° C. for 30 min. The preparation was washed 4×200 μl with Elisa wash buffer and aspirated with eight-channel aspirator. 100 μl/well of AR detection Ab was added after which the preparation was covered and shaken at 37° C. for 1 hr. 100 ul TMB was added, and the mixture was shaken for 5 min while under observation. When TMB turned light blue, 100 ul of Stop solution was added, and the mixture was shaken and read at 450 nm. Also read at 562 for background subtraction.

Molecule | Dmax at 1 µM [%]
CN[C@@H](C)C(=O)N[C@H](C(=O)N1CCC[C@H]1C(=O)N[C@H]1c2ccccc2C[C@H]1OCCOCCOCCOCCOCCOc1ccc(C(=O)NC2C(C)(C)C(Oc3ccc(C#N)c(Cl)c3)C2(C)C)cc1)C(C)(C)C (stereo partly drawn) [Example 1, 1-[3,3-dimethyl-(2S)-2-[(2S)-2-(methylamino)propanamido]butanoyl]-N-[(1S,2R)-2-[[1-(4-[[(1r,3r)-3-(3-chloro-4-cyanophenoxy)-2,2,4,4-tetramethylcyclobutyl]carbamoyl]phenyl)-1,4,7,10,13-pentaoxapentadecan-15-yl]oxy]-2,3-dihydro-1H-inden-1-yl]pyrrolidine-2-carboxamide] | 30 to 60
CN[C@@H](C)C(=O)N[C@H](C(=O)N1CCC[C@H]1C(=O)N[C@H]1c2ccccc2C[C@H]1OCCOCCOc1ccc(N2C(=S)N(c3ccc(C#N)c(C(F)(F)F)c3)C(=O)C2(C)C)cc1)C(C)(C)C [Example 35, (S)—N-((1S,2R)-2-(2-(2-(4-(3-(4-cyano-3-(trifluoromethyl)-phenyl)-5,5-dimethyl-4-oxo-2-thioxoimidazolidin-1-yl)phenoxy)ethoxy)ethoxy)-2,3-dihydro-1H-inden-1-yl)-1-((S)-3,3-dimethyl-2-((S)-2-(methylamino)propanamido)-butanoyl)pyrrolidine-2-carboxamide] | 0 to 30

The remaining lines, values ahead:

Dmax at 1 µM [%] | Molecule
0 to 30 | CN[C@@H](C)C(=O)N[C@H](C(=O)N1CC[C@@H]2CCN(CCc3ccc(OCCOCCOCCNc4ccc(C(=O)N[C@H]5C(C)(C)[C@H](Oc6ccc(C#N)c(Cl)c6)C5(C)C)cc4)cc3)C[C@@H]21)C1CCCCC1 (mixture of isomers) [Example 32, 4-[1-[4-(2-[1-[(2S)-2-cyclohexyl-2-[(2S)-2-(methylamino)propanamido]acetyl]-octahydro-1H-pyrrolo[2,3-c]pyridin-6-yl]ethyl)phenyl]-1,4,7-trioxa-10-azadecan-10-yl]-N-[(1r,3r)-3-(3-chloro-4-cyanophenoxy)-2,2,4,4-tetramethylcyclobutyl]benzamide]
30 to 60 | CN[C@@H](C)C(=O)N[C@H](C(=O)N1CC[C@@H]2CCN(CCc3ccc(OCCOCCOCCOCCNc4ccc(C(=O)N[C@H]5C(C)(C)[C@H](Oc6ccc(C#N)c(Cl)c6)C5(C)C)cc4)cc3)C[C@@H]21)C1CCCCC1 (racemic) [Example 33, N-((1r,3r)-3-(3-chloro-4-cyanophenoxy)-2,2,4,4-tetramethylcyclobutyl)-4-(2-(2-(2-(2-(4-(2-(1-((S)-2-cyclohexyl-2-((S)-2-(methylamino)propanamido)acetyl)-octahydropyrrolo[2,3-c]pyridin-6-yl)ethyl)phenoxy)ethoxy)ethoxy)ethoxy)ethylamino)benzamide]
0 to 30 | CN[C@@H](C)C(=O)N[C@H](C(=O)N1CCC[C@H]1c1nc(-c2ccc(OCCOCCNc3ccc(C(=O)NC4C(C)(C)C(Oc5ccc(C#N)c(Cl)c5)C4(C)C)cc3)c3ccccc23)cs1)C1CCCCC1 (stereo partly drawn) [Example 29, 4-[(2-[2-[(4-[2-[(2S)-1-[(2S)-2-cyclohexyl-2-[(2S)-2-(methylamino)propanamido]acetyl]pyrrolidin-2-yl]-1,3-thiazol-4-yl]naphthalen-1-yl)oxy]ethoxy]ethyl)amino]-N-[(1r,3r)-3-(3-chloro-4-cyanophenoxy)-2,2,4,4-tetramethylcyclobutyl]benzamide]
0 to 30 | CN[C@@H](C)C(=O)N[C@H](C(=O)N1CCC[C@H]1c1nc(-c2ccc(OCCOCCOCCNc3ccc(C(=O)N[C@H]4C(C)(C)[C@H](Oc5ccc(C#N)c(Cl)c5)C4(C)C)cc3)c3ccccc23)cs1)C1CCCCC1 [Example 30, 4-[1-(4-[2-[(2S)-1-[(2S)-2-Cyclohexyl-2-[(2S)-2-(methylamino)propanamido]acetyl]pyrrolidin-2-yl]-1,3-thiazol-4-yl]naphthalen-1-yl)-1,4,7-trioxa-10-azadecan-10-yl]-N-[(1r,3r)-3-(3-chloro-4-cyanophenoxy)-2,2,4,4-tetramethylcyclobutyl]benzamide]
0 to 30 | CN[C@@H](C)C(=O)N[C@H](C(=O)N1CCC[C@H]1c1nc(-c2ccc(OCCOCCOCCOCCNc3ccc(C(=O)N[C@H]4C(C)(C)[C@H](Oc5ccc(C#N)c(Cl)c5)C4(C)C)cc3)c3ccccc23)cs1)C1CCCCC1 [Example 31, 4-[1-(4-[2-[(2S)-1-[(2S)-2-cyclohexyl-2-[(2S)-2-(methylamino)propanamido]acetyl]pyrrolidin-2-yl]-1,3-thiazol-4-yl]naphthalen-1-yl)-1,4,7,10-tetraoxa-13-azatridecan-13-yl]-N-[(1r,3r)-3-(3-chloro-4-cyanophenoxy)-2,2,4,4-tetramethylcyclobutyl]benzamide]

Same assay, conditions: @ 1 μM

Androgen receptor (AR) degradation in VCaP cells [%] | Molecule
18 | CN[C@@H](C)C(=O)N[C@H](C(=O)N1CCC[C@H]1C(=O)N[C@H]1c2ccccc2C[C@H]1OCCOCCOCCOc1ccc(C(=O)N[C@H]2C(C)(C)[C@H](Oc3ccc(C#N)c(Cl)c3)C2(C)C)cc1)C(C)(C)C [(2S)-1-[(2S)-3,3-dimethyl-2-[(2S)-2-(methylamino)propanamido]butanoyl]-N-[(1S,2R)-2-(2-{2-[2-(4-{[(1r,3r)-3-(3-chloro-4-cyanophenoxy)-2,2,4,4-tetramethylcyclobutyl]carbamoyl}phenoxy)ethoxy]ethoxy}ethoxy)-2,3-dihydro-1H-inden-1-yl]pyrrolidine-2-carboxamide]
38 | CN[C@@H](C)C(=O)N[C@H](C(=O)N1CCC[C@H]1C(=O)N[C@H]1c2ccccc2C[C@H]1OCCOCCOCCOCCOCCOc1ccc(C(=O)N[C@H]2C(C)(C)[C@H](Oc3ccc(C#N)c(Cl)c3)C2(C)C)cc1)C(C)(C)C [(2S)-1-[(2S)-3,3-dimethyl-2-[(2S)-2-(methylamino)propanamido]butanoyl]-N-[(1S,2R)-2-{[1-(4-1{[(1r,3r)-3-(3-chloro-4-cyanophenoxy)-2,2,4,4-tetramethylcyclobutyl]carbamoyl}phenyl)-1,4,7,10,13-pentaoxapentadecan-15-yl]oxy}-2,3-dihydro-1H-inden-1-yl]pyrrolidine-2-carboxamide]
33 | CN[C@@H](C)C(=O)N[C@H](C(=O)N1CCC[C@H]1C(=O)N[C@H]1c2ccccc2C[C@H]1OCCOCCOCCOCCOc1ccc(C(=O)N[C@H]2C(C)(C)[C@H](Oc3ccc(C#N)c(Cl)c3)C2(C)C)cc1)C(C)(C)C [(2S)-1-[(2S)-3,3-dimethyl-2-[(2S)-2-(methylamino)propanamido]butanoyl]-N-[(1S,2R)-2-{[1-(4-1{[(1r,3r)-3-(3-chloro-4-cyanophenoxy)-2,2,4,4-tetramethylcyclobutyl]carbamoyl}phenyl)-1,4,7,10-tetraoxadodecan-12-yl]oxy}-2,3-dihydro-1H-inden-1-yl]pyrrolidine-2-carboxamide]

Same assay, conditions: androgen receptor, VCaP cells, PROTAC concentration 1 μM, relative to DMSO control

Molecule | Target protein degradation range
1-[(2S)-3,3-dimethyl-2-[(2S)-2-(methylamino)propanamido]butanoyl]-N-[(1S,2R)-2-[[1-(4-[[(1r,3r)-3-(3-chloro-4-cyanophenoxy)-2,2,4,4-tetramethylcyclobutyl]carbamoyl]phenyl)-1,4,7,10-tetraoxadodecan-12-yl]oxy]-2,3-dihydro-1H-inden-1-yl]pyrrolidine-2-carboxamide [Example 3] | B (degradation between 30% and 60%)
CN[C@@H](C)C(=O)N[C@H](C(=O)N1CCCC1C(=O)N[C@H]1c2ccccc2C[C@H]1OCCOCCOCCOc1ccc(C(=O)NC2C(C)(C)C(Oc3ccc(C#N)c(Cl)c3)C2(C)C)cc1)C(C)(C)C (stereo partly drawn) [Example 2, 1-[(2S)-3,3-dimethyl-2-[(2S)-2-(methylamino)propanamido]butanoyl]-N-[(1S,2R)-2-(2-[2-[2-(4-[[(1r,3r)-3-(3-chloro-4-cyanophenoxy)-2,2,4,4-tetramethylcyclobutyl]carbamoyl]phenoxy)ethoxy]ethoxy]ethoxy)-2,3-dihydro-1H-inden-1-yl]pyrrolidine-2-carboxamide] | C (degradation between 0% and 30%)
